Assay [1] addresses T1, HmuY (Porphyromonas gingivalis, UniProt A2BCY8).
T1 construct: polypeptide lacking the first 25 residues, plasmid pHmuY11, expressed in Escherichia coli ER2566, purified from soluble lysate
As to the kind of experiment: heme titration of apoprotein (UV-visible / Trp fluorescence quenching), one-site model. It counts as binding.

Assay [2] deals with HmuY (Porphyromonas gingivalis, UniProt A2BCY8, W73Y). The assay can be described thus: biochemical.
Assay [3] concerns the target HmuY (Porphyromonas gingivalis, UniProt A2BCY8, W51Y). As to the kind of experiment: biochemical.
Assay [4] addresses HmuY (Porphyromonas gingivalis, UniProt A2BCY8, W73A). The assay can be described thus: biochemical.
Assay [5] addresses HmuY (Porphyromonas gingivalis, UniProt A2BCY8, W161Y). As to the kind of experiment: biochemical.
For assay [6], the target named is HmuY (Porphyromonas gingivalis, UniProt A2BCY8, W51A). As to the kind of experiment: biochemical.
HmuY (Porphyromonas gingivalis, UniProt A2BCY8, W51A), sequence (A2BCY8 26-216 W51A): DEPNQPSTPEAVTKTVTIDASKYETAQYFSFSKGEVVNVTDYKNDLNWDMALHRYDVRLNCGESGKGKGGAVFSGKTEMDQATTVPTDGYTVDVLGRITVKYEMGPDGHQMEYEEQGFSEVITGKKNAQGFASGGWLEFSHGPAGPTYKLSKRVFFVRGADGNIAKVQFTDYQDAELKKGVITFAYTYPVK
The target of assay [7] is HmuY (Porphyromonas gingivalis, UniProt A2BCY8, W161A). The assay can be described thus: biochemical.
HmuY (Porphyromonas gingivalis, UniProt A2BCY8, W161A), sequence (A2BCY8 26-216 W161A): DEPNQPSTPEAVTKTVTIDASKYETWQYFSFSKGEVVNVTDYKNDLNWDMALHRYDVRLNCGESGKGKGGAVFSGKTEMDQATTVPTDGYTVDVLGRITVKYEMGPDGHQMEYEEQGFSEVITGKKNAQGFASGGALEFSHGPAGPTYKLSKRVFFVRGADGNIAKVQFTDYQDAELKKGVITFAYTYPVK

Structures are written as SMILES.

T1 sequence (A2BCY8 entry or part of it): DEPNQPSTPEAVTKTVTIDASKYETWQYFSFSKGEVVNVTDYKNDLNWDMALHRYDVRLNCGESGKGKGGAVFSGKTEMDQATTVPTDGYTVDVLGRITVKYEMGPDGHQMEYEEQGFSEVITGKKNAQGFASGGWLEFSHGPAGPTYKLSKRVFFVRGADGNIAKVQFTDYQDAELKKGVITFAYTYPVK
HmuY (Porphyromonas gingivalis, UniProt A2BCY8, W73A), sequence (A2BCY8 26-216 W73A): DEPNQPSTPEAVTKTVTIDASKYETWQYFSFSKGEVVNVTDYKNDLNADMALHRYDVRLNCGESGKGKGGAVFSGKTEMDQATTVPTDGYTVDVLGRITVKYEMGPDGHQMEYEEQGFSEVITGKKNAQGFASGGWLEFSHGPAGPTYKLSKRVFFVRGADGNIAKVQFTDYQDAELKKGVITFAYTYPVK
HmuY (Porphyromonas gingivalis, UniProt A2BCY8, W73Y), sequence (A2BCY8 26-216 W73Y): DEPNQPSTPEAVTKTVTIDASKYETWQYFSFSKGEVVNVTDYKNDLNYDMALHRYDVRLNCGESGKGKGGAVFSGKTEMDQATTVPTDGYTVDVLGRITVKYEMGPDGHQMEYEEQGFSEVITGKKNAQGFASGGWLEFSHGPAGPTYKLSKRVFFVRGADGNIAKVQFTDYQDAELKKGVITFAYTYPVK
HmuY (Porphyromonas gingivalis, UniProt A2BCY8, W161Y), sequence (A2BCY8 26-216 W161Y): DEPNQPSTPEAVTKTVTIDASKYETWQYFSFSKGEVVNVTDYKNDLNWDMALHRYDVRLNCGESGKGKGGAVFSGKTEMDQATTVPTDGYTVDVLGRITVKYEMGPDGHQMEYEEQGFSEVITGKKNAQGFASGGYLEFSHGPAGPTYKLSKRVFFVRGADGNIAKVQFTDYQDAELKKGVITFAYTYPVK
HmuY (Porphyromonas gingivalis, UniProt A2BCY8, W51Y), sequence (A2BCY8 26-216 W51Y): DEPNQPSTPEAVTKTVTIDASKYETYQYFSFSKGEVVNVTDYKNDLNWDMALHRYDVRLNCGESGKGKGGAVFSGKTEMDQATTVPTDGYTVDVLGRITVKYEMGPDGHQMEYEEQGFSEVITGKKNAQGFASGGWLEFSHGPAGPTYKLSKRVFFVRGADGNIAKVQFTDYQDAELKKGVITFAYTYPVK

With `C=CC1=C(C)C2=Cc3c(C=C)c(C)c4[n]3[Fe]([Cl])[n]3c(c(C)c(CCC(=O)O)c3=CC3=NC(=C4)C(C)=C3CCC(=O)O)=CC1=N2` [heme], the Kd in assay [1] worked out at 296 ± 12 nM; in assay [2], 238 ± 12 nM; in assay [3] it was 216 ± 7 nM; in assay [4], 229 ± 8 nM; in assay [5] it was 235 ± 11 nM; in assay [6] it was 303 ± 13 nM. Moreover, in assay [7], the affinity, expressed as Kd, was 323 ± 16 nM.

Broadly, the Kd is the equilibrium constant for the complex coming apart. A higher Kd goes with weaker binding.
